Measurements taken from patent publication US11440905B2, “Biheterocyclic compound” (SUMITOMO PHARMA CO., LTD., priority 2016, dated 2022).
Where a name gives a salt, the structure may show the parent alone.

Experiments:
[1] = molecular target: T1, mouse semaphorin 3A (Sema3A) (Mus musculus, UniProt O08665); test: Inhibitory activity for the collapse activity caused by Sema3A (growth cone collapse assay, Test 1); assay type: cell-based; details: chick embryo dorsal root ganglion, 3 units/mL mouse Sema3A, smaller value = more potent inhibition, read-out: residual ratio (%) of Sema3A activity (collapse assay); for remaining activity at 1 µM: 1 μM test compound; for remaining activity at 3 µM: 3 μM test compound
T1 sequence (O08665 21-772): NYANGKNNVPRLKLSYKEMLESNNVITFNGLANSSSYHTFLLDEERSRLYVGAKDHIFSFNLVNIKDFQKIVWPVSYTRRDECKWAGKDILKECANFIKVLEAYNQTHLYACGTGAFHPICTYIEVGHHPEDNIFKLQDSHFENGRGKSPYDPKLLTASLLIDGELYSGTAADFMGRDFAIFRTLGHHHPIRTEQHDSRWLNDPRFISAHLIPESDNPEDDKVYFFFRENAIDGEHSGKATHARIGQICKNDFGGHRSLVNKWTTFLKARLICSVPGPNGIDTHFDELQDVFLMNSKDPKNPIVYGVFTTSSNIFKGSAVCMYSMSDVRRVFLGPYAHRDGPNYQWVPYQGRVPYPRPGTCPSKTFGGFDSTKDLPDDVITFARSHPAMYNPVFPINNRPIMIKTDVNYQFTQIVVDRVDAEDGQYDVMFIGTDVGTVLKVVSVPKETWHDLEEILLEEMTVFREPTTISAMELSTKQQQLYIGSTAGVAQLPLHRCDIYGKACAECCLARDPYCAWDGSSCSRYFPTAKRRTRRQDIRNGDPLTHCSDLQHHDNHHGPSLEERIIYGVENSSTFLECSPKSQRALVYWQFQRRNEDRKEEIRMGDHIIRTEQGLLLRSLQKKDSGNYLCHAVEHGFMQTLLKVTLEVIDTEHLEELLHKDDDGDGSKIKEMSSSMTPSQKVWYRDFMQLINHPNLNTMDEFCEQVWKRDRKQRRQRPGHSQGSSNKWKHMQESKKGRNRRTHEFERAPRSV
Description: Inhibitory Activity for the Collapse Activity Caused by Sema3A
96 well-plate (SUMITOMO BAKELITE CO., LTD.) which was beforehand coated with polylysine was further coated with laminin (10 μL laminin, at room temperature, for 1 hour). To each well was added 100 μL of a medium (F12 medium containing 10% fetal bovine serum, 20 ng/mL NGF, 100 unit/mL penicillin, and 100 μg/mL streptomycin). Dorsal root ganglion harvested from 7-8 day-old chick embryo was inoculated thereto, and the culture medium was cultivated under the condition of 5% CO2 and 37° C. for 16-20 hours. And then, each test compound in various concentrations was added to the medium, each test medium was cultivated for 30 minutes, 3 units/mL mouse semaphorin 3A (Sema3A) was added to each medium, and then each test medium was cultivated for more 30 minutes. Then, glutaraldehyde was added to the medium, in which the final concentration of glutaraldehyde was 1%. The medium was left to stand at room temperature for 15 minutes to make the tissue fragment fixed, and the ratio of the retracted growth cone was measured under a microscope.

[2] = molecular target: T2, mouse Sema3A binding to CHO cells stably-expressing mouse neuropilin (Mus musculus, UniProt O08665); test: Inhibitory activity for the neuropilin-binding activity caused by Sema3A (Test 2); details: 1 h, AP-Sema3A, read-out: residual ratio (%) of avidity (Sema3A-neuropilin binding); for remaining activity at 100 µM: 100 μM test compound, smaller value = more potent binding inhibition
T2 construct: host or cells: CHO cells stably expressing the neuropilin partner
T2 sequence (O08665 21-772): T1 sequence (O08665 21-772)
Description: (Test 2) Inhibitory Activity for the Neuropilin-Binding Activity Caused by Sema3A
To each well of 96 well-plate (IWAKI) was seeded CHO cells stably-expressing mouse neuropilin, the cells were cultivated in F12 medium (10% fetal bovine serum, 100 units/mL penicillin, and 100 μg/mL streptomycin) under the condition of 5% CO2 and 37° C. for 18 hours. And then, the culture medium was removed, and mouse Sema3A which included each test compound and alkaline phosphatase (AP) in various concentrations was added thereto, and the culture was reacted at room temperature for more one hour. Then, the reaction solution was removed, the residual cells were washed with HBSS solution (0.25% BSA) and dissolved in a solution (10 mM Tris including 1% Triton X-100) at 65° C. for one hour, and the AP activity thereof was measured.

remaining activity at 1 µM [1] [%] | remaining activity at 3 µM [1] [%] | remaining activity at 100 µM [2] [%] | remaining activity at 10 µM ([2]; 10 μM test compound (footnote *)) [%] | Compound
5.4 | 0 | – | – | Cc1c(-c2coc3cc(O)c(O)c(C(=O)OCc4cn(CC(=O)N[C@@H](CCC(=O)O)C(=O)O)nn4)c3c2=O)c(=O)n(C)c2cc(O)c(O)cc12 [Example 15, N-({4-[({[3-(6,7-Dihydroxy-1,4-dimethyl-2-oxo-1,2-dihydroquinolin-3-yl)-6,7-dihydroxy-4-oxo-4H-chromen-5-yl]carbonyl}oxy)methyl]-1H-1,2,3-triazol-1-yl}acetyl)-L-glutamic acid]
15.9 | 2.2 | – | – | Cc1nc2cc(O)c(O)cn2c(=O)c1-c1coc2cc(O)c(O)c(C(=O)O)c2c1=O [Example 16, 3-(7,8-Dihydroxy-2-methyl-4-oxo-4H-pyrido[1,2-a]pyrimidin-3-yl)-6,7-dihydroxy-4-oxo-4H-chromene-5-carboxylic acid]
90.1 | 3.3 | – | – | Cc1nc2cc(O)c(O)cn2c(=O)c1-c1coc2cc(O)c(O)c(C(=O)OCc3cn(CC(=O)N[C@@H](CCC(=O)O)C(=O)O)nn3)c2c1=O [Example 17, N-({4-[({[3-(7,8-Dihydroxy-2-methyl-4-oxo-4H-pyrido[1,2-a]pyrimidin-3-yl)-6,7-dihydroxy-4-oxo-4H-chromen-5-yl]carbonyl}oxy)methyl]-1H-1,2,3-triazol-1-yl}acetyl)-L-glutamic acid]
21.8 | 6.7 | – | – | Cc1nc2cc(O)c(O)cn2c(=O)c1-c1coc2cc(O)c(O)c(C(=O)OCC(=O)N[C@@H](CCC(=O)O)C(=O)O)c2c1=O [Example 18, N-[({[3-(7,8-Dihydroxy-2-methyl-4-oxo-4H-pyrido[1,2-a]pyrimidin-3-yl)-6,7-dihydroxy-4-oxo-4H-chromen-5-yl]carbonyl}oxy)acetyl]-L-glutamic acid]
– | – | 56.5 | – | Cn1cc(-c2coc3cc(O)c(O)c(C(=O)OCCOCCC(=O)O)c3c2=O)c(=O)c2cc(O)c(O)cc21 [Example 20, 3-[2-({[3-(6,7-Dihydroxy-1-methyl-4-oxo-1,4-dihydroquinolin-3-yl)-6,7-dihydroxy-4-oxo-4H-chromen-5-yl]carbonyl}oxy)ethoxy]propanoic acid]
– | – | 58.5 | – | Cn1cc(-c2coc3cc(O)c(O)c(C(=O)OCCOCCC(=O)N[C@@H](CCC(=O)O)C(=O)O)c3c2=O)c(=O)c2cc(O)c(O)cc21 [Example 21, N-{3-[2-({[3-(6,7-Dihydroxy-1-methyl-4-oxo-1,4-dihydroquinolin-3-yl)-6,7-dihydroxy-4-oxo-4H-chromen-5-yl]carbonyl}oxy)ethoxy]propanoyl}-L-glutamic acid]
– | – | 62.1 | – | Cn1cc(-c2coc3cc(O)c(O)c(C(=O)OCCN(CC(=O)O)CC(=O)O)c3c2=O)c(=O)c2cc(O)c(O)cc21 [Example 22, 2,2′-{[2-({[3-(6,7-Dihydroxy-1-methyl-4-oxo-1,4-dihydroquinolin-3-yl)-6,7-dihydroxy-4-oxo-4H-chromen-5-yl]carbonyl}oxy)ethyl]imino}-di-acetic acid]
< 70 | < 10 | – | – | Cn1cc(-c2coc3cc(O)c(O)c(C(=O)OCC(O)CO)c3c2=O)c(=O)c2cc(O)c(O)cc21 (centres unmarked) [Example 23, 2,3-Dihydroxypropyl 3-(6,7-dihydroxy-1-methyl-4-oxo-1,4-dihydroquinolin-3-yl)-6,7-dihydroxy-4-oxo-4H-chromene-5-carboxylate]
< 70 | < 10 | – | – | Cn1cc(-c2coc3cc(O)c(O)c(C(=O)OC[C@H]4CC[C@H](N)CC4)c3c2=O)c(=O)c2cc(O)c(O)cc21 [Example 24, (trans-4-Aminocyclohexyl)methyl 3-(6,7-dihydroxy-1-methyl-4-oxo-1,4-dihydroquinolin-3-yl)-6,7-dihydroxy-4-oxo-4H-chromene-5-carboxylate hydrochloride]
– | – | 90.5 | – | CN1CCN(C)C(COC(=O)c2c(O)c(O)cc3occ(-c4cn(C)c5cc(O)c(O)cc5c4=O)c(=O)c23)C1 (centres unmarked) [Example 25, (1,4-Dimethylpiperazin-2-yl)methyl 3-(6,7-dihydroxy-1-methyl-4-oxo-1,4-dihydroquinolin-3-yl)-6,7-dihydroxy-4-oxo-4H-chromene-5-carboxylate hydrochloride]
– | – | – | 97.8 | Cn1ccnc1COC(=O)c1c(O)c(O)cc2occ(-c3cn(C)c4cc(O)c(O)cc4c3=O)c(=O)c12 [Example 26, (1-Methyl-1H-imidazol-2-yl)methyl 3-(6,7-dihydroxy-1-methyl-4-oxo-1,4-dihydroquinolin-3-yl)-6,7-dihydroxy-4-oxo-4H-chromene-5-carboxylate hydrochloride]
< 10 | < 10 | – | – | Cn1cc(-c2coc3cc(O)c(O)c(C(=O)OCC[C@H](N)C(=O)O)c3c2=O)c(=O)c2cc(O)c(O)cc21 [Example 27, O-{[3-(6,7-Dihydroxy-1-methyl-4-oxo-1,4-dihydroquinolin-3-yl)-6,7-dihydroxy-4-oxo-4H-chromen-5-yl]carbonyl}-L-homoserine hydrochloride]
– | – | 87.1 | – | Cn1cc(-c2coc3cc(O)c(O)c(C(=O)OCCN4CCC(O)C4)c3c2=O)c(=O)c2cc(O)c(O)cc21 (centres unmarked) [Example 28, 2-(3-Hydroxypyrrolidin-1-yl)ethyl 3-(6,7-dihydroxy-1-methyl-4-oxo-1,4-dihydroquinolin-3-yl)-6,7-dihydroxy-4-oxo-4H-chromene-5-carboxylate]
– | – | 49.3 | – | Cn1cc(-c2coc3cc(O)c(O)c(C(=O)OCCOCCOCCOCCOCCO)c3c2=O)c(=O)c2cc(O)c(O)cc21 [Example 29, 14-Hydroxy-3,6,9,12-tetraoxatetradec-1-yl 3-(6,7-dihydroxy-1-methyl-4-oxo-1,4-dihydroquinolin-3-yl)-6,7-dihydroxy-4-oxo-4H-chromene-5-carboxylate]
– | < 40 | – | – | Cn1cc(-c2coc3cc(O)c(O)c(C(=O)OCC(N)=O)c3c2=O)c(=O)c2cc(O)c(O)cc21 [Example 30, 2-Amino-2-oxoethyl 3-(6,7-dihydroxy-1-methyl-4-oxo-1,4-dihydroquinolin-3-yl)-6,7-dihydroxy-4-oxo-4H-chromene-5-carboxylate]
– | – | 69.4 | – | COC(=O)CCOCCOC(=O)c1c(O)c(O)cc2occ(-c3cn(C)c4cc(O)c(O)cc4c3=O)c(=O)c12 [Example 31, 2-(3-Methoxy-3-oxopropoxy)ethyl 3-(6,7-dihydroxy-1-methyl-4-oxo-1,4-dihydroquinolin-3-yl)-6,7-dihydroxy-4-oxo-4H-chromene-5-carboxylate]
